Measured values taken from patent US12036212B2, “Enhancement of tumor response to chemotherapy by activation of the asmase/ceramide pathway through timed administration of a short-acting anti-angiogenic agent” (Memorial Sloan-Kettering Cancer Center, priority 2014, dated 2024).

How the values were obtained:
[1] = human, in vivo; cited from earlier work
[2] = test system: advanced soft tissue sarcoma; test: Phase II trial of gemcitabine and docetaxel with bevacizumab, volumetric tumor response; type: in vivo, human
Protocol: Patients with metastatic or locally-recurrent leiomyosarcoma, pleomorphic undifferentiated sarcoma, pleomorphic liposarcoma, rhabdomyosarcoma or angiosarcoma, were treated on a phase II trial of gemcitabine, docetaxel and bevacizumab. Initially the trial was a double-blind, placebo-controlled, randomized trial of gemcitabine and docetaxel with or without bevacizumab, which was modified to a single-arm, open-label, non-randomized study of gemcitabine, docetaxel and bevacizumab. The protocol was approved by the Institutional Review Board of Memorial-Sloan Kettering Cancer Center, and all patients provided written informed consent (Clinicaltrials.gov identifier NCT00887809).
Initially, gemcitabine was administered immediately following bevacizumab.
Volumetric measurement of tumors was performed on an exploratory basis as the original study was not designed or powered to specifically investigate the clinical application of timed anti-angiogenic therapy as a method of tumor chemosensitization. In light of the results from our animal studies, which were made part way through the clinical study period, volumetric measurements were proposed to more ideally facilitate comparison with our pre-clinical data. Furthermore, they likely provide a more meaningful assessment of tumor response than the RECIST based evaluation for soft tissue sarcoma. […] Baseline CT or MRI was used to identify a dominant target lesion for measurement. Follow-up scans were evaluated for best response. Tumor contours were defined manually and summed across all axial slices to calculate a total volume measurement. Tumor response was defined as at least a 30% reduction in tumor volume. Both a two-tailed Fisher's Exact Test and the Mann-Whitney Rank-Sum test were employed to evaluate significance in patient volumetric response rates at the first interval treatment scan (week 6) and at time of maximum treatment response.
Patients enrolled in the trial had metastatic or recurrent leiomyosarcoma, pleomorphic undifferentiated sarcoma, pleomorphic liposarcoma, rhabdomyosarcoma or angiosarcoma (FIG. 7A).
A total of 38 patients were treated. A subset of patients received placebo instead of bevacizumab. […] Baseline CT scan or MRI was used to identify a dominant target lesion for volumetric measurement, followed by volumetric assessment on initial post-treatment follow-up scan ([…]) and over the treatment course (representative CT time course of abdominal metastasis is shown in FIG. 7B showing regression of metastatic tumor).

bevacizumab: monoclonal antibody that targets circulating VEGF A, long-acting AAA
Half-life (t1/2) [1]: 21 days | Patients with >30% tumor reduction, initial follow-up scan ([2]; after two 3-week cycles, bevacizumab-gemcitabine 1-hour interval, 14 patients): 64% | Patients with significant tumor response (≥30% reduction in tumor volume), initial follow-up scan ([2]; after two 3-week cycles, immediate consecutive bevacizumab-gemcitabine, 16 patients): 25% | Patients with significant tumor response, best response ([2]; bevacizumab 15 mg/kg 1 hour prior to gemcitabine, docetaxel day 8, 14 patients): 93% | Patients with significant tumor response (>30% reduction in tumor volume), best response ([2]; bevacizumab 15 mg/kg immediately before gemcitabine, docetaxel day 8, 16 patients): 38%
